Test results from patent US20110237659A1, “CHROMENONE DERIVATIVES AS TRPV3 ANTAGONISTS” (GLENMARK PHARMACEUTICALS S.A., priority 2008, published 2011).

Molecular target: T1, Human TRPV3 (Homo sapiens, UniProt Q8NET8)
T1 construct: expressed in transfected cells; host or cells: CHO cells
T1 sequence (Q8NET8 1-790): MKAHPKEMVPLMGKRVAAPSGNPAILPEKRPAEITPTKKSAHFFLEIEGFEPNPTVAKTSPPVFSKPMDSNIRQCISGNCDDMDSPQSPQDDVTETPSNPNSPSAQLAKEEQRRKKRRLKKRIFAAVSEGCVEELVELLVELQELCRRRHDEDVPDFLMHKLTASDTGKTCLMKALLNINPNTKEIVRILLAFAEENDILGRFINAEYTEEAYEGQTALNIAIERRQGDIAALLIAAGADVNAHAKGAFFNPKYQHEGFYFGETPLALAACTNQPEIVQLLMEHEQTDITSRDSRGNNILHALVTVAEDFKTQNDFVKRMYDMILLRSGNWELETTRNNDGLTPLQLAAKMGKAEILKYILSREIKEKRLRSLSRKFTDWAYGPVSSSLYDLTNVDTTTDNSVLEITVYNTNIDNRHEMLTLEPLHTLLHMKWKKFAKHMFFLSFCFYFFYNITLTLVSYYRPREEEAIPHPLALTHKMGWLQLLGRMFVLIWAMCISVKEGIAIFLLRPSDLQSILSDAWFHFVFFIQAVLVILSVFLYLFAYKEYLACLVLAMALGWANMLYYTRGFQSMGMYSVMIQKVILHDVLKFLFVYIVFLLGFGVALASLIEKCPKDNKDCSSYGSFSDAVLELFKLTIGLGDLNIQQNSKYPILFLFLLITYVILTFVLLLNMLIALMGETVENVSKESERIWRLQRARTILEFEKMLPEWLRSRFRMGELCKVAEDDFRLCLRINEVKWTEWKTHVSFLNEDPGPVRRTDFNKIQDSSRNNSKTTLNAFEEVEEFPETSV
Assay: 45Calcium uptake assay: inhibition of 2-APB induced cellular uptake of radioactive calcium in human TRPV3 expressing CHO cells
Format: cell-based
Details: 2-APB 500 μM; for inhibition at 1 µM: 1.0 μM test compound, read-out: Percentage inhibition at 1.0 μM; for inhibition at 10 µM: 10.0 μM test compound, read-out: Percentage inhibition at 10.0 μM
Description: The illustrative examples of the present invention are screened for TRPV3 activity according to a modified procedure described in (a) Tóth, A. et al. Life Sciences 2003, 73, 487-498. (b) McNamara C, R. et al. Proc. Natl. Acad. Sci. U.S.A., 2007, 104, 13525-13530. The screening of the compounds can be carried out by other methods and procedures known to persons skilled in the art.
Screening for TRPV3 Antagonist Using the ^45Calcium Uptake Assay
The inhibition of TRPV3 receptor activation was followed as inhibition of 2-aminoethxydiphenylborate (2-APB) induced cellular uptake of radioactive calcium. Test compounds were dissolved in dimethyl sulfoxide (DMSO) to prepare 20 mM stock solution and then diluted using plain medium with DMEM/F-12 containing 1.8 mM CaCl2 to get desired concentration. Final concentration of DMSO in the reaction was 0.5% (v/v). Human TRPV3 expressing CHO cells were grown in DMEM/F-12 medium with 10% FBS, 1% penicillin-streptomycin solution, 400 μg/mL of G-418. Cells were seeded 24 h prior to the assay in 96 well plates so as to get ˜50,000 cells per well on the day of experiment. Cells were treated with test compounds for 10 minutes followed by addition of 2-APB at a final concentration of 500 μM and 5 μCi/mL ^45Ca^+2 for 4 minutes. Cells were washed and lysed using buffer containing 1% Triton X-100, 0.1% deoxycholate and 0.1% SDS. Radioactivity in the lysate was measured in Packardt Top count after addition of liquid scintillant. Concentration response curves were plotted as a % of maximal response obtained in the absence of test antagonist. IC50 value was calculated from concentration response curve by nonlinear regression analysis using GraphPad PRISM software.
Percentage inhibition at concentrations of 1.0 μM and 10.0 μM are given in the table along with IC50 (nM) values for selected examples.

Row | Structure (SMILES) | inhibition at 1 µM [%] | inhibition at 10 µM [%] | IC50 [nM]
1 | COc1cccc(/C=C/c2oc3ccc(F)cc3c(=O)c2-c2ccc(C#N)cc2)c1OCC1CC1 [Example 15, 4-{2-[(E)-2-(2-Cyclopropylmethoxy-3-methoxyphenyl)-1-ethenyl]-6-fluoro-4-oxo-4H-3-chromenyl}benzonitrile] | 79.3 | 94.1 | 150 to 1000
2 | COc1cccc(/C=C/c2oc3ccc(F)cc3c(=O)c2-c2ccc(C#N)cc2)c1OCC(C)C [Example 19, 4-{6-Fluoro-2-[(E)-2-(2-isobutoxy-3-methoxyphenyl)-1-ethenyl]-4-oxo-4H-3-chromenyl}benzonitrile] | 70.2 | 87.8 | < 50
3 | COc1cccc(/C=C/c2oc3ccc(F)cc3c(=O)c2-c2ccc(C#N)cc2)c1OCCC(C)C [Example 18, 4-{6-Fluoro-2-[(E)-2-(2-isopentyloxy-3-methoxyphenyl)-1-ethenyl]-4-oxo-4H-3-chromenyl}benzonitrile] | 55.2 | 71.7 | 
4 | COc1cccc(/C=C/c2oc3ccccc3c(=O)c2-c2ccc(C#N)cc2)c1OC1CCCC1 [Example 5, 4-{2-[(E)-2-(2-Cyclopentyloxy-3-methoxyphenyl)-1-ethenyl]-4-oxo-4H-3-chromenyl}benzonitrile] | 71.8 | 90.3 | 150 to 1000
5 | COc1cccc(/C=C/c2oc3cc(F)ccc3c(=O)c2-c2ccc(C#N)cc2)c1OC1CCCC1 [Example 11, 4-{2-[(E)-2-(2-Cyclopentyloxy-3-methoxyphenyl)-1-ethenyl]-7-fluoro-4-oxo-4H-3-chromenyl}benzonitrile] | 84.6 | 92.6 | 50 to 150
6 | N#Cc1ccc(-c2c(/C=C/c3cccc(OC(F)F)c3OCC3CC3)oc3ccccc3c2=O)cc1 [Example 4, 4-(2-{(E)-2-[2-(Cyclopropylomethoxy)-3-(difluoromethoxy)phenyl]vinyl}-4-oxo-4H-3-chromenyl}benzonitrile] | 92.9 | 94.8 | 150 to 1000
7 | COc1cccc(/C=C/c2oc3cc(F)c(F)cc3c(=O)c2-c2ccc(C#N)cc2)c1OC1CCCC1 [Example 23, 4-{2-[(E)-2-[2-Cyclopentyloxy-3-methoxyphenyl)-1-ethenyl]-6,7-difluoro-4-oxo-4H-3-chromenyl}benzonitrile] | 75.8 | 86.7 | < 50
8 | COc1cccc(/C=C/c2oc3cc(F)ccc3c(=O)c2-c2ccc(C#N)cc2)c1OCC(C)C [Example 13, 4-{7-Fluoro-2-[(E)-2-(2-isobutoxy-3-methoxyphenyl)-1-ethenyl]-4-oxo-4H-3-chromenyl}benzonitrile] | 92.9 | 96.7 | 50 to 150
9 | COc1cccc(/C=C/c2oc3ccccc3c(=O)c2-c2ccc(C(F)(F)F)cc2)c1OCC1CC1 [Example 2, 2-[(E)-2-(2-Cyclopropylmethoxy-3-methoxyphenyl)-1-ethenyl]-3-(4-trifluoromethyl-phenyl)-4H-4-chromenone] | 63.1 | 75.4 | 150 to 1000
10 | COc1cccc(/C=C/c2oc3c(F)cc(F)cc3c(=O)c2-c2ccc(C#N)cc2)c1OCC1CC1 [Example 22, 4-{2-[(E)-2-(2-Cyclopropylmethoxy-3-methoxyphenyl)-1-ethenyl]-6,8-difluoro-4-oxo-4H-3-chromenyl}benzonitrile] | 40 | 73 | 
11 | COc1cccc(/C=C/c2oc3ccccc3c(=O)c2-c2ccc(C#N)cc2)c1O [Example 6, 4-{2-[(E)-2-(2-Hydroxy-3-methoxyphenyl)-1-ethenyl]-4-oxo-4H-3-chromenyl}-benzonitrile] | 32.1 | 83.9 | 
12 | COc1cccc(/C=C/c2oc3ccccc3c(=O)c2-c2ccc(C#N)cc2)c1OCC(C)C [Example 8, 4-{2-[(E)-2-[2-Isobutoxy-3-methoxyphenyl)-1-ethenyl]-4-oxo-4H-3-chromenyl}benzonitrile] | 89.3 | 96.4 | 50 to 150

The remaining lines, values ahead:

Row | inhibition at 1 µM [%] | inhibition at 10 µM [%] | IC50 [nM] | Structure (SMILES)
13 | 74.3 | 78.5 | < 50 | COc1cccc(/C=C/c2oc3ccc(F)cc3c(=O)c2-c2ccc(C#N)cc2)c1OCC(C)(C)C [Example 20]
14 | 59.4 | 74.4 |  | COc1cccc(/C=C/c2oc3ccc(F)cc3c(=O)c2-c2ccc(C#N)cc2)c1OC1CCCC1 [Example 16, 4-{2-[(E)-2-(2-Cyclopentyloxy-3-methoxyphenyl)-1-ethenyl]-6-fluoro-4-oxo-4H-3-chromenyl}benzonitrile]
15 | 90.4 | 94.5 | 150 to 1000 | COc1cccc(/C=C/c2oc3ccccc3c(=O)c2-c2ccc(C#N)cc2)c1OCC1CC1 [Example 3, 4-{2-[(E)-2-(2-Cyclopropylmethoxy-3-methoxyphenyl)-1-ethenyl]-4-oxo-4H-3-chromenyl}benzonitrile]
16 | 89.8 | 93.2 | 50 to 150 | COc1cccc(/C=C/c2oc3ccccc3c(=O)c2-c2ccc(C#N)cc2)c1OCC(C)(C)C [Example 7, 4-{2-[(E)-2-[2-(2,2-Dimethylpropoxy)-3-methoxyphenyl]-1-ethenyl]-4-oxo-4H-3-chromenyl}benzonitrile]
17 | 36.7 | 62.2 |  | COc1cccc(/C=C/c2oc3ccccc3c(=O)c2-c2ccc(OC(F)(F)F)cc2)c1OCC1CC1 [Example 1, 2-[(E)-2-(2-Cyclopropylmethoxy-3-methoxyphenyl)-1-ethenyl]-3-(4-trifluoromethoxy-phenyl)-4H-4-chromenone]
18 | 94.5 | 98 | 50 to 150 | COc1cccc(/C=C/c2oc3ccccc3c(=O)c2-c2ccc(C#N)cc2)c1OCCC(F)(F)F [Example 9, 4-(2-{(E)-2-[3-Methoxy-2-(3,3,3-trifluoropropoxy)phenyl]-1-ethenyl}-4-oxo-4H-3-chromenyl}benzonitrile]
19 | 76.4 | 87.7 | 150 to 1000 | COc1cccc(/C=C/c2oc3ccc(Cl)cc3c(=O)c2-c2ccc(C#N)cc2)c1OCC1CC1 [Example 21, 4-{6-Chloro-2-[(E)-2-(2-cyclopropylmethoxy-3-methoxyphenyl)-1-ethenyl]-4-oxo-4H-3-chromenyl}benzonitrile]
20 | 82.2 | 91.2 | < 50 | COc1cccc(/C=C/c2oc3cc(F)ccc3c(=O)c2-c2ccc(C#N)cc2)c1OCC(C)(C)C [Example 12, 4-{7-Fluoro-2-[(E)-2-(3-methoxy-2-neopentyloxyphenyl)-1-ethenyl]-4-oxo-4H-3-chromenyl}benzonitrile]
21 | 78.2 | 89.8 | 150 to 1000 | COc1cccc(/C=C/c2oc3ccc(F)cc3c(=O)c2-c2ccc(C#N)cc2)c1OCC1CCC1 [Example 17, 4-{2-[(E)-2-(2-Cyclobutylmethoxy-3-methoxyphenyl)-1-ethenyl]-6-fluoro-4-oxo-4H-3-chromenyl}benzonitrile]
22 | 87.3 | 95.6 | 150 to 1000 | COc1cccc(/C=C/c2oc3cc(F)ccc3c(=O)c2-c2ccc(C#N)cc2)c1OCC1CC1 [Example 10, 4-{2-[(E)-2-(2-Cyclopropylmethoxy-3-methoxyphenyl)-1-ethenyl]-7-fluoro-4-oxo-4H-3-chromenyl}benzonitrile]
